In patent publication US12099061B2, “Nidogen 1 as a diagnostic marker and therapeutic target of hepatocellular carcinoma, composition and methods thereof” (THE UNIVERSITY OF HONG KONG, priority 2020, dated 2024):

System: MHCC97L cells
Assay: EV secretion of MHCC97L cells treated with Tipifarnib
Type: cell-based, human
Conditions: 1 μM Tipifarnib for 48 hr; EVs isolated from conditioned medium
Protocol: FIGS. 11A-11B Reduction of EV secretion attenuates liver tumor formation. (A) Quantification of EVs isolated from conditioned medium of MHCC97L treated with 1 μM Tipifarnib or DMSO vehicle for 48 hr. The analysis was done in triplicate. (B) Image of dissected liver of mice subjected to orthotopic liver injection of Matrigel/MHCC97L (1×10^6 cells/injection) pretreated with 48-hr DMSO or Tipifarnib (1 μM) (n=6). Measurement of tumor volume is shown. Data are represented as mean±SEM. *P<0.05 and ***P<0.001 from Student's t test.
Protein lysates were obtained by cell lysis with NETN lysis buffer (0.1% NP40, 25 mM Tris-HCl, 50 mM […], 0.2 mM EDTA), supplemented with 10% cOmplete™ protease inhibitor cocktail and 10% PhosStop phosphatase inhibitor cocktail (Roche Applied Science). Bradford reagent (Bio-Rad Corporation) using bovine serum albumin as standard concentration was used to quantify protein amount. […] Chemiluminescent signals were detected by ECL™ Western Blotting Detection Reagents (Amersham). […] The level of EV-CD63 was expressed as amount of CD63 over EV protein amount (μg/μg) (w/w). […] The amount of isolated EVs was quantified. […] After 6 weeks post injection, mice were sacrificed and liver tumor volume was measured using a caliper and calculated using the formula: volume=L×W^2×0.5 (L, the largest diameter; W, the smallest diameter). […]

SMILES: Cn1cncc1[C@@](N)(c1ccc(Cl)cc1)c1ccc2c(c1)c(-c1cccc(Cl)c1)cc(=O)n2C [tipifarnib, Tipifarnib]
- reduction of EV secretion from MHCC97L cells: up to 50%
